Test results: US6066619A, “Non-aqueous protic peptide formulations” (Alza Corporation, priority 1999, dated 2000)

Experiment: Gelation of non-aqueous protic solvent formulations on adding polar aprotic solvent
Type: physicochemical
Conditions: adding polar aprotic solvents such as DMSO to non-aqueous protic solvent formulation
Description: Thus, these solvents have an anti-gellant effect.

Row | Compound | gelation of the formulation
1 | CC(C)C[C@H](NC(=O)[C@@H](COC(C)(C)C)NC(=O)[C@H](Cc1ccc(O)cc1)NC(=O)[C@H](CO)NC(=O)[C@H](Cc1c[nH]c2ccccc12)NC(=O)[C@H](Cc1cnc[nH]1)NC(=O)[C@@H]1CCC(=O)N1)C(=O)N[C@@H](CCCNC(=N)N)C(=O)N1CCC[C@H]1C(=O)NNC(N)=O [goserelin] | prevents gelation
2 | CCNC(=O)[C@@H]1CCCN1C(=O)[C@H](CCCNC(=N)N)NC(=O)[C@H](CC(C)C)NC(=O)[C@@H](CC(C)C)NC(=O)[C@H](Cc1ccc(O)cc1)NC(=O)[C@H](CO)NC(=O)[C@H](Cc1c[nH]c2ccccc12)NC(=O)[C@H](Cc1c[nH]cn1)NC(=O)[C@@H]1CCC(=O)N1 [leuprolide] | prevents gelation
3 | calcitonin | prevents gelation
